From patent US12599136B2, “Substituted isophthalic acid diamides and their use as herbicides” (Bayer Aktiengesellschaft, priority 2020, dated 2026)

Tests used:
Assay type in all cases: in vivo
[1] = tested on: Cyperus esculentus; experiment: Pre-emergence herbicidal action against CYPES; conditions: visual score after 3 weeks vs untreated controls
Summary of the method: (§1)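 Sandy loam pots, seeds covered with soil, then surface-treated with WP or EC formulations at 600–800 l/ha water plus 0.2% wetting agent. Greenhouse, 3 weeks. Percent damage vs untreated controls.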

[2] = tested on: Stellaria media; experiment: Post-emergence herbicidal action against STEME; conditions: visual assessment about 3 weeks after treatment
Summary of the method: (§2)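 Herbicidal action is a visual percentage rating (0% = as untreated control, 100% = plants dead) made roughly 3 weeks after treatment. Plants were grown in sandy loam in the greenhouse and treated at the one-leaf stage, 2 to 3 weeks post-sowing. Treatment was a foliar spray of wettable-powder or emulsion-concentrate formulations at 600 to 800 l/ha water plus 0.2% wetting agent.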

[3] = tested on: Polygonum convolvulus; experiment: Post-emergence herbicidal action against POLCO; conditions: visual assessment about 3 weeks after treatment
Procedure: (§3) Seeds of monocotyledonous and dicotyledonous weed and crop plants are laid out in sandy loam soil in wood-fiber pots, covered with soil and cultivated in a greenhouse under good growth conditions. 2 to 3 weeks after sowing, the test plants are treated at the one-leaf stage. The compounds of the invention, formulated in the form of wettable powders (WP) or as emulsion concentrates (EC), are then sprayed onto the green parts of the plants in the form of an aqueous suspension or emulsion at a water application rate equivalent to 600 to 800 l/ha, with addition of 0.2% wetting agent. After the test plants have been left to stand in the greenhouse under optimal growth conditions for about 3 weeks, the action of the preparations is assessed visually in comparison to untreated controls (herbicidal action in percent (%): 100% activity=the plants have died, 0% activity=like control plants). […] The tables below illustrate, in an illustrative manner, the post-emergence herbicidal action of the compounds of the invention, the herbicidal activity being stated in percent.

[4] = tested on: Amaranthus retroflexus; experiment: Pre-emergence herbicidal action against AMARE; conditions: visual score after 3 weeks vs untreated controls
Summary of the method: as §1

[5] = tested on: Avena fatua; experiment: Post-emergence herbicidal action against AVEFA; conditions: visual assessment about 3 weeks after treatment
Summary of the method: as §2

[6] = tested on: Abutilon theophrasti; experiment: Post-emergence herbicidal action against ABUTH
Summary of the method: as §2

[7] = tested on: Avena fatua; experiment: Pre-emergence herbicidal action against AVEFA; conditions: visual score after 3 weeks vs untreated controls
Summary of the method: as §1

[8] = tested on: Veronica persica; experiment: Post-emergence herbicidal action against VERPE; conditions: 80 g/ha, visual assessment about 3 weeks after treatment
Summary of the method: as §2

[9] = tested on: Alopecurus myosuroides; experiment: Post-emergence herbicidal action against ALOMY; conditions: 80 g/ha
Summary of the method: as §2

[10] = tested on: Echinochloa crus-galli; experiment: Post-emergence herbicidal action against ECHCG; conditions: visual assessment about 3 weeks after treatment
Summary of the method: as §2

[11] = tested on: Viola tricolor; experiment: Post-emergence herbicidal action against VIOTR
Summary of the method: as §2

[12] = tested on: Lolium rigidum; experiment: Post-emergence herbicidal action against LOLRI; conditions: 80 g/ha
Procedure: as §3

[13] = tested on: Veronica persica; experiment: Pre-emergence herbicidal action against VERPE; conditions: 320 g/ha
Summary of the method: as §1

[14] = tested on: Hordeum murinum; experiment: Pre-emergence herbicidal action against HORMU; conditions: 320 g/ha; visual score after 3 weeks vs untreated controls
Summary of the method: as §1

[15] = tested on: Polygonum convolvulus; experiment: Pre-emergence herbicidal action against POLCO
Summary of the method: as §1

[16] = tested on: Setaria viridis; experiment: Pre-emergence herbicidal action against SETVI
Summary of the method: as §1

[17] = tested on: Matricaria inodora; experiment: Pre-emergence herbicidal action against MATIN; conditions: visual score after 3 weeks vs untreated controls
Summary of the method: as §1

[18] = tested on: Stellaria media; experiment: Pre-emergence herbicidal action against STEME
Summary of the method: as §1

[19] = tested on: Pharbitis purpurea; experiment: Pre-emergence herbicidal action against PHBPU; conditions: 320 g/ha; visual score after 3 weeks vs untreated controls
Summary of the method: as §1

[20] = tested on: Matricaria inodora; experiment: Post-emergence herbicidal action against MATIN; conditions: visual assessment about 3 weeks after treatment
Summary of the method: as §2

[21] = tested on: Viola tricolor; experiment: Pre-emergence herbicidal action against VIOTR
Summary of the method: as §1

[22] = tested on: Abutilon theophrasti; experiment: Pre-emergence herbicidal action against ABUTH; conditions: visual score after 3 weeks vs untreated controls
Summary of the method: as §1

[23] = tested on: Lolium rigidum; experiment: Pre-emergence herbicidal action against LOLRI
Summary of the method: as §1

[24] = tested on: Alopecurus myosuroides; experiment: Pre-emergence herbicidal action against ALOMY; conditions: 320 g/ha; visual score after 3 weeks vs untreated controls
Summary of the method: as §1

[25] = tested on: Pharbitis purpurea; experiment: Post-emergence herbicidal action against PHBPU; conditions: visual assessment about 3 weeks after treatment
Summary of the method: as §2

[26] = tested on: Echinochloa crus-galli; experiment: Pre-emergence herbicidal action against ECHCG; conditions: visual score after 3 weeks vs untreated controls
Summary of the method: as §1

[27] = tested on: Amaranthus retroflexus; experiment: Post-emergence herbicidal action against AMARE; conditions: visual assessment about 3 weeks after treatment
Summary of the method: as §2

[28] = tested on: Setaria viridis; experiment: Post-emergence herbicidal action against SETVI; conditions: 80 g/ha, visual assessment about 3 weeks after treatment
Summary of the method: as §2

CCn1nnnc1NC(=O)c1ccc(C(F)(F)F)c(C(=O)n2cccn2)c1Cl [Example 2-153]
Pre-emergence action against CYPES ([1]; 80 g/ha): 100%
Pre-emergence action against CYPES ([1]; 320 g/ha): 100%
Post-emergence action against STEME in % ([2]; 5 g/ha): 100%
Post-emergence action against STEME in % ([2]; 20 g/ha): 100%
Post-emergence action against STEME in % ([2]; 80 g/ha): 100%
Post-emergence action against POLCO in % ([3]; 20 g/ha): 90%
Post-emergence action against POLCO in % ([3]; 80 g/ha): 100%
Pre-emergence action against AMARE ([4]; 20 g/ha): 100%
Pre-emergence action against AMARE ([4]; 80 g/ha): 100%
Pre-emergence action against AMARE ([4]; 320 g/ha): 100%
Post-emergence action against AVEFA in % ([5]; 20 g/ha): 90%
Post-emergence action against AVEFA in % ([5]; 80 g/ha): 100%
Post-emergence action against ABUTH ([6]; 5 g/ha): 80%
Post-emergence action against ABUTH ([6]; 20 g/ha): 90%
Post-emergence action against ABUTH ([6]; 80 g/ha): 100%
Pre-emergence action against AVEFA ([7]; 80 g/ha): 100%
Pre-emergence action against AVEFA ([7]; 320 g/ha): 100%
Post-emergence action against VERPE in % [8]: 80%
Post-emergence action against ALOMY [9]: 90%
Post-emergence action against ECHCG in % ([10]; 5 g/ha): 80%
Post-emergence action against ECHCG in % ([10]; 20 g/ha): 80%
Post-emergence action against ECHCG in % ([10]; 80 g/ha): 90%
Post-emergence action against VIOTR in % ([11]; 5 g/ha): 90%
Post-emergence action against VIOTR in % ([11]; 20 g/ha): 90%
Post-emergence action against VIOTR in % ([11]; 80 g/ha): 100%
Post-emergence action against LOLRI in % [12]: 80%
Pre-emergence action against VERPE [13]: 90%
Pre-emergence action against HORMU [14]: 90%
Pre-emergence action against POLCO ([15]; 80 g/ha): 80%
Pre-emergence action against POLCO ([15]; 320 g/ha): 100%
Pre-emergence action against SETVI ([16]; 20 g/ha): 90%
Pre-emergence action against SETVI ([16]; 80 g/ha): 100%
Pre-emergence action against SETVI ([16]; 320 g/ha): 100%
Pre-emergence action against MATIN ([17]; 20 g/ha): 100%
Pre-emergence action against MATIN ([17]; 80 g/ha): 100%
Pre-emergence action against MATIN ([17]; 320 g/ha): 100%
Pre-emergence action against STEME ([18]; 20 g/ha): 90%
Pre-emergence action against STEME ([18]; 80 g/ha): 100%
Pre-emergence action against STEME ([18]; 320 g/ha): 100%
Pre-emergence action against PHBPU [19]: 100%
Post-emergence action against MATIN in % ([20]; 5 g/ha): 90%
Post-emergence action against MATIN in % ([20]; 20 g/ha): 100%
Post-emergence action against MATIN in % ([20]; 80 g/ha): 100%
Pre-emergence action against VIOTR ([21]; 80 g/ha): 100%
Pre-emergence action against VIOTR ([21]; 320 g/ha): 100%
Pre-emergence action against ABUTH ([22]; 20 g/ha): 100%
Pre-emergence action against ABUTH ([22]; 80 g/ha): 100%
Pre-emergence action against ABUTH ([22]; Dosage column 320 g/ha (heading prints 3200 g/ha)): 100%
Pre-emergence action against LOLRI ([23]; 80 g/ha): 80%
Pre-emergence action against LOLRI ([23]; 320 g/ha): 90%
Pre-emergence action against ALOMY [24]: 90%
Post-emergence action against PHBPU in % ([25]; 20 g/ha): 80%
Post-emergence action against PHBPU in % ([25]; 80 g/ha): 90%
Pre-emergence action against ECHCG ([26]; 80 g/ha): 100%
Pre-emergence action against ECHCG ([26]; 320 g/ha): 100%
Post-emergence action against AMARE in % ([27]; 5 g/ha): 100%
Post-emergence action against AMARE in % ([27]; 20 g/ha): 100%
Post-emergence action against AMARE in % ([27]; 80 g/ha): 100%
Post-emergence action against SETVI in % [28]: 100%
